Results as given in US5773569A (Affymax Technologies N.V., priority 1995, dated 1998).
Residues, ends and D or L forms follow the SMILES beside them.

Experiments:
[1] = biological target: T1, PIG-tailed EPO-R immobilized on mAb179 (Homo sapiens, UniProt P19235); assay: PIG-tailed EPO-R radioligand competition binding assay; details: streptavidin 4:1 experiment; free peptide concentrations
T1 construct: comprised the extracellular domain of the EPO-receptor; thrombin cleavage site (internal); made in house
T1 sequence (P19235 25-250 limits assumed): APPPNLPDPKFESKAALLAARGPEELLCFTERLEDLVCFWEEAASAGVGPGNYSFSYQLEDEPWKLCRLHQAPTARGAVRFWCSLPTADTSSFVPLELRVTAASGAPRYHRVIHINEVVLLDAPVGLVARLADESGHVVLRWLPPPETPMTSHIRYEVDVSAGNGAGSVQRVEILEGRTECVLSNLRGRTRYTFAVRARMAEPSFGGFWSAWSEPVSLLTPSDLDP
Method: Affinity was determined using a radioligand competition binding assay against PIG-tailed EPOR immobilized on mAB179.
The recombinant receptor protein was immobilized using the following methodology. Microtiter plates were coated within an anti-receptor antibody and the wells which were to contain the immobilized receptor were treated with bovine serum albumin (BSA) to block non-specific binding. The PIG-tailed receptor having a thrombin cleavage site was added to the coated wells of the microtiter plate, which were then washed to remove unbound receptor.
IC50 s were calculated for several of the peptides falling within the general motifs described above.
This peptide was incubated with streptavidin in PBS at a 4:1 molar ratio at room temperature for one hour.
The affinity of the dimer was tested against the PIG-tailed EPOR immobilized on mAbl179 in strip wells.

FDCP-1/muER cells = assay: Peptide-induced initiation of cell cycle measured by DNA content; assay type: cell-based, murine; details: 10 U/ml; ten hours postinduction; medium control 15%
Method: F. Cellular response kinetics: Peptide-Induced Initiation of Cell Cycle Measured By DNA Content
1. Experimental Protocol: FDCP-1/muER cells were grown to stationery phase ≈3.0×10^6 cells/ml. […] Three million cells were collected at the following time points: 0, 6, 8, 10, and 12 hr. (see, FIG. 15). Cells were washed twice in cold PBS and fixed by resuspending the cell pellet in 100 μl of cold PBS followed by 900 μl of cold 70% ethanol. Cells were stained with 50 μg/ml of propidium iodine and fluorescence was measured on FACS Scan Flow cytometer. The percentage of cells in each phase was measured using the SOBR model of CelIFIT software, by Becton Dickinson.

[2] = system: human peripheral blood mononuclear cells; assay: Colony assay on a human peripheral blood specimen; assay type: cell-based
Method: (§1) G. Colony Assay: Murine Bone Marrow and Human Peripheml Blood Colony Assay
(§2) A ten milliliter sample of peripheral blood was obtained from a healthy individual in a standard sterile heparin vacutainer tube. Murine bone marrow was obtained from the femurs of approximately 10 mice per experiment. All reagents were obtained from Stem Cell Technologies Inc. (Vancouver, Canada).
(§3) a. Experimental Protocol: Briefly, a nucleated cell count was performed to establish the number and concentration of nucleated cells in the original sample. In the case of peripheral blood, the sample is subjected to centrifugation through a Ficoll-Hypaque (1.077 g per ml) gradient at 400 g for 30 minutes at room temperature. Mononuclear cells at the interface of the Ficoll-Hypaque solution are carefully removed and diluted to a total volume of about 10 ml. The cells obtained from murine bone marrow or human peripheral blood were collected by centrifugation and the supernatant was decanted. The pelleted cells were resuspended in fresh medium and subjected to collection as described above. The washed cells were diluted in Iscove's medium/2% fetal bovine serum to the following concentration for plating:
Normal blood: 4×10^5 light density cells
(§4) Cells were added to methyl cellulose per directions of the manufacturer. […] Equivalent cell numbers were plated in "Complete" methylcellulose medium to assess maximal colony formation. A control plate was run with each assay minus EPO and peptide to determine background colony formation. Colonies were scored after both 10 days and 18 days of incubation.

murine bone marrow cells = assay: Colony assay, murine bone marrow; assay type: cell-based; details: EPO
Method: as §1, §2, §3
Normal marrow: 1×10^5 light density cells
as §4

[3] = system: polycythemic exhypoxic mice (59Fe incorporation); assay: Polycythemic exhypoxic mouse bioassay; assay type: in vivo; details: subcutaneous
Method: J. Polycythemic Exhypoxic Mouse Bioassay
Female BDF1 mice (18-20 gms) are subjected to a conditioning cycle (in hypobaric chambers) of 18 hrs. at 0.40±0.02 atm. and 6 hrs. at ambient pressure for a period of 14 days.
Mice are maintained at ambient pressure for 72 hrs prior to administration of r-HuEPO or test samples. Test samples or r-HuEPO standard are diluted for injection into conditioned mice. The vehicle consists of: PBS containing 0.1% BSA (w/v). For each dilution, 0.5 ml is administered subcutaneously into each of 10 mice. ^59 Fe is administered 48 hrs. later. Blood samples are taken 48 hrs. following administration of ^59 Fe. Hematocrits and radioactivity measurements are determined for each sample. Dose range and results (two different assays) are set forth in Table 22 and FIGS. 17A-17C, infra.

[4] = scored 2/23/94, EPO (METHOCULT)

Compound: CC(C)C[C@@H]1NC(=O)[C@@H]2CCCN2C(=O)CNC(=O)[C@H](Cc2ccccc2)NC(=O)[C@H](Cc2c[nH]cn2)NC(=O)[C@@H](NC(=O)[C@H](CO)NC(=O)[C@H](Cc2ccc(O)cc2)NC(=O)[C@@H](NC(=O)CNC(=O)CN)[C@@H](C)O)CSSC[C@@H](C(=O)N[C@@H](CCCCN)C(=O)N2CCC[C@H]2C(=O)N[C@@H](CCC(N)=O)C(=O)NCC(=O)NCC(=O)N[C@@H](CO)C(=O)N[C@@H](CO)C(=O)N[C@@H](CCCCNC(=O)CCCCCNC(=O)CCCC[C@@H]2SC[C@@H]3NC(=O)N[C@@H]32)C(N)=O)NC(=O)[C@H](C(C)C)NC(=O)[C@H](Cc2c[nH]c3ccccc23)NC(=O)[C@H]([C@@H](C)O)NC1=O (HELM PEPTIDE1{G.G.T.Y.S.C.H.F.G.P.L.T.W.V.C.K.P.Q.G.G.S.S.K.[am]}|PEPTIDE2{[O=C1N[C@H]2[C@H](CS[C@H]2CCCCC(=O)[*:2])N1].[O=C(CCCCCN[*:1])[*:2]]}$PEPTIDE1,PEPTIDE2,23:R3-2:R2|PEPTIDE1,PEPTIDE1,6:R3-15:R3$$$V2.0; N-terminus and C-terminus assumed)
- IC50 [1]: 350 nM

Compound: EPO: Erythropoietin, glycoprotein hormone with 165 amino acids; recombinant standard
- cells in S phase (FDCP-1/muER cells): approximately 45%
- CFU-E ([2]; scored 2/23/94, 3 U/ml): 7
- MBFU-E ([2]; scored 2/23/94, 3 U/ml): 7
- CFU-E [2, 4]: 11
- MBFU-E [2, 4]: 25
- CFU-E ([2]; scored 3/4/94, 3 U/ml): 4
- CFU-GM ([2]; scored 3/4/94, 3 U/ml): 3
- MBFU-E ([2]; scored 3/4/94, 3 U/ml): 7
- PBFU-E ([2]; scored 3/4/94, 3 U/ml): 7
- CFU-E ([2]; scored 3/4/94, EPO (METHOCULT)): 1
- CFU-GM ([2]; scored 3/4/94, EPO (METHOCULT)): 9
- MBFU-E ([2]; scored 3/4/94, EPO (METHOCULT)): 11
- PBFU-E ([2]; scored 3/4/94, EPO (METHOCULT)): 13
- BFU-E colony-forming cell numbers (murine bone marrow cells; Table 14 (1/28/94), 2/10/94): 5
- CFU-E colony-forming cell numbers (murine bone marrow cells; Table 14 (1/28/94), 2/10/94): 23
- CFU-GM colony-forming cell numbers (murine bone marrow cells; Table 14 (1/28/94), 2/10/94): 3
- BFU-E colony-forming cell numbers (murine bone marrow cells; Table 14 (1/28/94), 2/21/94): 30
- CFU-E colony-forming cell numbers (murine bone marrow cells; Table 14 (1/28/94), 2/21/94): 0
- CFU-GM colony-forming cell numbers (murine bone marrow cells; Table 14 (1/28/94), 2/21/94): 3
- BFU-E colony-forming cell numbers (murine bone marrow cells; Table 15 (2/21/94), 3/1/94): 3
- CFU-E colony-forming cell numbers (murine bone marrow cells; Table 15 (2/21/94), 3/1/94): 3
- CFU-GM colony-forming cell numbers (murine bone marrow cells; Table 15 (2/21/94), 3/1/94): > 10
- CFU-E colony-forming cell numbers (murine bone marrow cells; Table 15 (2/21/94), 3/14/94): 0
- CFU-GM colony-forming cell numbers (murine bone marrow cells; Table 15 (2/21/94), 3/14/94): 26
- MBFU-E colony-forming cell numbers (murine bone marrow cells; Table 15 (2/21/94), 3/14/94): 0
- PBFU-E colony-forming cell numbers (murine bone marrow cells; Table 15 (2/21/94), 3/14/94): 10
- LOG MEAN ([3]; dose 0.025 U): 1.65
- LOG MEAN ([3]; dose 0.050 U): 2.74
- LOG MEAN ([3]; dose 0.100 U): 3.28
